We go through 18 molecules from patent US9120749B2, “Quinoline derivatives and MELK inhibitors containing the same” (ONCOTHERAPY SCIENCE, INC., priority 2010, dated 2015).

What is called IC50 is the concentration that inhibits the measured activity by half.

In assay [1] the target is MELK (Homo sapiens, UniProt Q14680). Kind of assay: Kinase assay: MELK activity, phosphorylation of FITC-labeled histone H3 peptide measured by IMAP fluorescence polarization. The note with it: 50 micro-M ATP, FITC-labeled histone H3 peptide substrate, IMAP fluorescence polarization; read-out: IC50 (μM) (kinase assay). The format is biochemical. An outline of the steps: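 A FITC-labelled histone H3 peptide served as substrate, with compounds serially diluted to 1% DMSO final. Reactions were stopped with three volumes of IMAP progressive binding solution. After 0.5 h at room temperature, fluorescence polarization was read.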
(In fluorescence polarisation assays a small probe gives low polarisation when free and higher when bound to something large.)

Assay [2] concerns BT-549 cells. Kind of assay: Cell-based assay: anti-proliferative activity, Cell Counting Kit-8, 72 hours (BT-549). The note with it: Homo sapiens, BT-549, 72 h, BT549 cells, MELK-expressing; Cell Counting Kit-8 at 72 hours. How it is done:
To evaluate the expression status of MELK in several cell lines, western blot analysis was performed using crude cell lysate collected from those cells. Anti-MELK antibody (clone 31, BD Biosciences) was used to visualize the expression.
Active candidate inhibitors against MELK were evaluated for their target-specific cytotoxicity using T47D, A549, BT-549, and HT-1197 cells was used for negative control. 100 micro-L of cell suspension was seeded onto 96-well microtiter plate (ViewPlate-96FTC, PerkinElmer). The initial cell concentration of T47D, A549, BT-549, and HT-1197 were 3,000 cells/well, 2,000 cells/well and 2,500 cells/well, respectively. Cellular growth was determined using Cell Counting Kit-8 (DOJINDO) at 72 hours after the exposure of the candidate inhibitors. […] Accurate IC50 values were calculated as described previously.

In assay [3] the test system is T47D cells. Kind of assay: Cell-based assay: anti-proliferative activity, Cell Counting Kit-8, 72 hours (T47D). The note with it: Homo sapiens, T47D, 72 h, MELK-expressing, Cell Counting Kit-8 at 72 hours. An outline of the steps: (§1)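 T47D, A549 and BT-549 cells, with MELK-negative HT-1197 as control (MELK status checked by western blot), seeded at 2,000–3,000 cells/well. Growth measured by CCK-8 72 hours after inhibitor exposure; IC50 values calculated.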

Assay [4] concerns A549 cells. In words: Cell-based assay: anti-proliferative activity, Cell Counting Kit-8, 72 hours (A549). To be noted: Homo sapiens, A549, 72 h, MELK-expressing, Cell Counting Kit-8 at 72 hours. The method, boiled down:
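Cell Counting Kit-8 read-out of A549 growth after 72 hours of inhibitor exposure, cells plated in 96-well format. Values reported as IC50.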

For assay [5], the system named is HT-1197 cells. In words: Cell-based assay: anti-proliferative activity, Cell Counting Kit-8, 72 hours (HT-1197, negative control without MELK expression). To be noted: Homo sapiens, HT1197, 72 h, HT1197 cells, no MELK expression (negative control); Cell Counting Kit-8 at 72 hours. An outline of the steps:
as §1
In general terms: Formazan colour is commonly taken as a measure of viable cells.

Counter-ions that a name gives are not always drawn.

Chain of MELK (Q14680 whole entry, looked up): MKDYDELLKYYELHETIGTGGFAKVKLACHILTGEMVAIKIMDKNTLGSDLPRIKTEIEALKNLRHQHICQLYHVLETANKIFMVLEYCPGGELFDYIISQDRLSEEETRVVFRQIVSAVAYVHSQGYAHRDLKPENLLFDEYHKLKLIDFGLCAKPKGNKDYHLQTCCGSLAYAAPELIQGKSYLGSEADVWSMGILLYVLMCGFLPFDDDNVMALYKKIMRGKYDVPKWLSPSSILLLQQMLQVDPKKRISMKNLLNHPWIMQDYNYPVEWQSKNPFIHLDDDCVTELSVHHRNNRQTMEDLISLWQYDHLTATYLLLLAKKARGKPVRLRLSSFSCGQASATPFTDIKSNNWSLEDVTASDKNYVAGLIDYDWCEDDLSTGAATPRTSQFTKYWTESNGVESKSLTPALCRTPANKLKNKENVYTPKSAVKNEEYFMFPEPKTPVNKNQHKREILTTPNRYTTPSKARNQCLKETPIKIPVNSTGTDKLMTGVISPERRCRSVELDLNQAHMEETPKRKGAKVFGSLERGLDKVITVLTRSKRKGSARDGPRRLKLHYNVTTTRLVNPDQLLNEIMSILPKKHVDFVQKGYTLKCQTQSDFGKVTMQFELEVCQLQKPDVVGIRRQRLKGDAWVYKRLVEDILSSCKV

As for `CC(C1CCN(c2c(S(C)(=O)=O)cnc3ccc(-c4ccc(O)c(Cl)c4)cc23)CC1)N(C)C` (stereo not drawn) [Example 246, 2-Chloro-4-[4-{4-[1-(dimethylamino)ethyl]piperidin-1-yl}-3-(methylsulfonyl)quinolin-6-yl]phenol], the IC50 in assay [1] amounted to 0.01 µM; in assay [2], 0.72 µM; in assay [3], 0.18 µM; in assay [4] it was 0.35 µM; in assay [5], 1.2 µM.

Consider `COc1cc(-c2ccc3ncc(C(=O)C4CC4)c(NC4CCN(C)CC4)c3c2)cc(Cl)c1O` [Example 249], for which the IC50 in assay [1] is 0.0079 µM; in assay [2] it was 1.3 µM; in assay [3], 0.83 µM; in assay [4], 0.3 µM; in assay [5], 4.4 µM.

For the molecule `COc1cc(-c2ccc3ncc(C(=O)C4CC4)c(N4CCC(C(C)N(C)C)CC4)c3c2)cc(Cl)c1O` (stereo not drawn) [Example 250, [6-(3-Chloro-4-hydroxy-5-methoxyphenyl)-4-{4-[1-(dimethylamino)ethyl]piperidin-1-yl}quinolin-3-yl](cyclopropyl)methanone], the IC50 in assay [1] amounted to 0.0013 µM; in assay [2], 0.61 µM; in assay [3], 0.16 µM; in assay [4] it was 0.11 µM; in assay [5] it was 1.7 µM.

For `COc1cc(-c2ccc3ncc(C(=O)C4CC4)c(N[C@H]4CC[C@H](N(C)C)CC4)c3c2)cc(Cl)c1O` [Example 255, {6-(3-Chloro-4-hydroxy-5-methoxyphenyl)-4-[trans-4-(dimethylamino)cyclohexylamino]quinolin-3-yl}(cyclopropyl)methanone], the IC50 amounted to 0.0019 µM in assay [1]; 0.64 µM in assay [2]; 0.28 µM in assay [3]; 0.18 µM in assay [4]; 1.9 µM in assay [5].

For the molecule `CC(=O)c1cnc2ccc(-c3cc(Cl)c(O)c(Cl)c3)cc2c1N[C@H]1CC[C@H](N)CC1` [Example 256, 1-{4-[trans-4-Aminocyclohexylamino]-6-(3,5-dichloro-4-hydroxyphenyl)quinolin-3-yl}ethanone], the IC50 in assay [1] turned out to be 0.0041 µM; in assay [2], 0.31 µM; in assay [3], 0.064 µM; in assay [4], 0.44 µM; in assay [5] it was 100 µM.

As for `CC(=O)c1cnc2ccc(-c3cc(F)c(O)c(F)c3)cc2c1N[C@H]1CC[C@H](N)CC1` [Example 258, 1-{4-[trans-4-Aminocyclohexylamino]-6-(3,5-difluoro-4-hydroxyphenyl)quinolin-3-yl}ethanone], the IC50 turned out to be 0.04 µM in assay [1]; 0.16 µM in assay [2]; 0.071 µM in assay [3]; 0.85 µM in assay [4]; 100 µM in assay [5].

In the case of `COc1cc(-c2ccc3ncc(C(C)=O)c(N[C@H]4CC[C@H](N)CC4)c3c2)cc(Cl)c1O` [Example 259, 1-{4-[trans-4-Aminocyclohexylamino]-6-(3-chloro-4-hydroxy-5-methoxyphenyl)quinolin-3-yl}ethanone], the IC50 was found to be 0.0024 µM in assay [1]; 0.43 µM in assay [2]; 0.057 µM in assay [3]; 0.099 µM in assay [4]; 2.5 µM in assay [5].

With `COc1cc(-c2ccc3ncc(C(=O)CC(C)C)c(N[C@H]4CC[C@H](N)CC4)c3c2)cc(Cl)c1O` [Example 262, dihydrochloride], the IC50 is 0.005 µM in assay [1]; 0.91 µM in assay [2]; 0.13 µM in assay [3]; 0.36 µM in assay [4]; 2.2 µM in assay [5].

Turning to `CN(C)[C@H]1CC[C@H](Nc2c(C(=O)C3CC3)cnc3ccc(-c4cc(Cl)c(O)c(Cl)c4)cc23)CC1` [Example 263, Cyclopropyl{6-(3,5-dichloro-4-hydroxyphenyl)-4-[trans-4-(dimethylamino)cyclohexylamino]quinolin-3-yl}methanone], the IC50 came out at 0.0017 µM in assay [1]; 0.41 µM in assay [2]; 0.13 µM in assay [3]; 0.2 µM in assay [4]; 1.2 µM in assay [5].

In the case of `COc1cc(-c2ccc3ncc(C(=O)C4CC4)c(N[C@H]4CC[C@H](N(C)C)CC4)c3c2)ccc1O` [Example 266, Cyclopropyl(4-((trans)-4-(dimethylamino)cyclohexylamino)-6-(4-hydroxy-3-methoxyphenyl)quinolin-3-yl)methanone], the concentration for half-maximal inhibition (IC50) in assay [1] came to 0.0016 µM; in assay [2], 0.94 µM; in assay [3] it was 0.29 µM; in assay [4] it was 0.37 µM; in assay [5] it was 3 µM.

`CC(C)CC(=O)c1cnc2ccc(-c3cc(Cl)c(O)c(Cl)c3)cc2c1N[C@H]1CC[C@H](N)CC1` [Example 267, 1-{4-[trans-4-Aminocyclohexylamino]-6-(3,5-dichloro-4-hydroxyphenyl)quinolin-3-yl}-3-methylbutan-1-one dihydrochloride]: the IC50 stood at 0.0022 µM in assay [1]; 0.72 µM in assay [2]; 0.14 µM in assay [3]; 0.38 µM in assay [4]; 3 µM in assay [5].

As to `CC(C1CCN(c2c(C(=O)C3CC3)cnc3ccc(-c4cc(F)c(O)c(Cl)c4)cc23)CC1)N(C)C` (stereo not drawn) [Example 269, [6-(3-Chloro-5-fluoro-4-hydroxyphenyl)-4-{4-[1-(dimethylamino)ethyl]piperidin-1-yl}quinolin-3-yl](cyclopropyl)methanone], the IC50 in assay [1] was 0.0037 µM; in assay [2], 0.5 µM; in assay [3], 0.22 µM; in assay [4] it was 0.44 µM; in assay [5] it was 1.3 µM.

`CN1CCC(CNc2c(C(=O)C3CC3)cnc3ccc(-c4cc(F)c(O)c(Cl)c4)cc23)CC1` [Example 270, {6-(3-Chloro-5-fluoro-4-hydroxyphenyl)-4-[(1-methylpiperidin-4-yl)methylamino]quinolin-3-yl}(cyclopropyl)methanone]: the IC50 in assay [1] came out at 0.021 µM; in assay [2], 1.1 µM; in assay [3] it was 0.51 µM; in assay [4], 0.69 µM; in assay [5], 2.9 µM.

With `COc1cc(-c2ccc3ncc(C(=O)C4CC4)c(N4CCC(CN(C)C)CC4)c3c2)cc(Cl)c1O` [Example 276, [6-(3-Chloro-4-hydroxy-5-methoxyphenyl)-4-{4-[(dimethylamino)methyl]piperidin-1-yl}quinolin-3-yl](cyclopropyl)methanone], the IC50 was found to be 0.0008 µM in assay [1]; 0.58 µM in assay [2]; 0.16 µM in assay [3]; 0.21 µM in assay [4]; 1.8 µM in assay [5].

For `CN(C)CC1CCN(c2c(C(=O)C3CC3)cnc3ccc(-c4ccc(O)c(Cl)c4)cc23)CC1` [Example 279, [6-(3-Chloro-4-hydroxyphenyl)-4-{4-[(dimethylamino)methyl]piperidin-1-yl}quinolin-3-yl](cyclopropyl)methanone], the IC50 in assay [1] is 0.0046 µM; in assay [2], 0.86 µM; in assay [3] it was 0.21 µM; in assay [4], 0.3 µM; in assay [5] it was 6.7 µM.

With `COc1cc(-c2ccc3ncc(C(=O)C4CC4)c(N4CCC(CN5CCCC5)CC4)c3c2)cc(Cl)c1O` [Example 280, {6-(3-Chloro-4-hydroxy-5-methoxyphenyl)-4-[4-(pyrrolidin-1-ylmethyl)piperidin-1-yl]quinolin-3-yl}(cyclopropyl)methanone], the IC50 in assay [1] was 0.0017 µM; in assay [2], 0.71 µM; in assay [3] it was 0.25 µM; in assay [4] it was 0.2 µM; in assay [5], 2.9 µM.

In the case of `O=C(c1cnc2ccc(-c3cc(F)c(O)c(Cl)c3)cc2c1N1CCC(CN2CCCC2)CC1)C1CC1` [Example 283, {6-(3-Chloro-5-fluoro-4-hydroxyphenyl)-4-[4-(pyrrolidin-1-ylmethyl)piperidin-1-yl]quinolin-3-yl}(cyclopropyl)methanone], the IC50 in assay [1] was found to be 0.0029 µM; in assay [2] it was 0.72 µM; in assay [3], 0.35 µM; in assay [4], 0.54 µM; in assay [5], 3 µM.

Turning to `COc1cc(-c2cc3c(N[C@H]4CC[C@H](N)CC4)c(C(=O)C4CC4)cnc3cc2F)cc(Cl)c1O` [Example 284, {4-[trans-4-aminocyclohexylamino]-6-(3-chloro-4-hydroxy-5-methoxyphenyl)-7-fluoroquinolin-3-yl}(cyclopropyl)methanone], the IC50 turned out to be 0.013 µM in assay [1]; 1.7 µM in assay [2]; 0.62 µM in assay [3]; 0.49 µM in assay [4]; 2.2 µM in assay [5].
